Results on five molecules are retold here after EP2774915A1, “New derivatives of resveratrol” (Mattarei, Andrea, priority 2013, dated 2014).

Like-named read-outs stand apart in the source and are kept apart here.

Data set [1] is described as follows: Solubility in aqueous media (excess solid stirred in buffer, HPLC of filtered supernatant). Particulars: 1 mM acetate buffer at pH 5, 25°C, 24 hours stirring.
Description: (§1) Solubility in aqueous media. A calibration curve is constructed via HPLC analysis of a series of solutions of the compound of interest at known concentrations in a suitable solvent. A known amount (excess) of solid compound is placed in a 20-mL vial to which a 5 mL aliquot of 1 mM acetate buffer at pH 5 is then added. The contents are stirred at 25°C for 24 hours. After a 4-hour decantation period, 1 mL of the supernatant is filtered through a PTFE 0.45 µm filter, diluted with 2 v/v of acetonitrile and analyzed by HPLC. The entire procedure is repeated twice with the same sample, at 24-hour intervals, to verify the invariance of the result.
The conditions of data set [2]: pH 5.
Description: as §1
The nature of data set [3]: Stability to oxidation: reaction with DPPH radical, absorbance at 520 nm. The format is physicochemical. Particulars: 20 nmoles of DPPH in methanol, absorbance at 520 nm after 40 min (Fig. 5). (In general: The DPPH test is a chemical assay of radical scavenging.)
Description: At time zero, 20 nmoles of DPPH and the specified amount of resveratrol or of its derivative were mixed in methanol. Absorbance was measured after 40 min.
The susceptibility to oxidation can be assessed by studying c) the reaction with the 1,1-diphenyl-2-picrylhydrazyl (DPPH) radical.
DPPH is a stable free radical with an absorbance maximum at 520 nm (purple). Upon reaction with polyphenols it is converted to DPPHH (yellow) and this change of colour is an indication of the extent of the reaction which has taken place. The assays were conducted using 96-well plates following Fukumoto and Mazza (2000), measuring absorbance with a Tecan Infinite 200 plate reader.

Consider `CNC(=O)Oc1ccc(C=Cc2cc(OC(=O)NC)cc(OC(=O)NC)c2)cc1` [Resv(Me-C)3, 3,4',5-tri-[N-methyl-carbamoyl]-resveratrol], for which the Solubility in water entry in data set [1] is reported as “below detection limit”.

Regarding `CCCCCCCCC=CCCCCCCCCNC(=O)Oc1ccc(C=Cc2cc(OC(=O)NCCCCCCCCC=CCCCCCCCC)cc(OC(=O)NCCCCCCCCC=CCCCCCCCC)c2)cc1` [Resv(Oleyl-C)3, 3,4',5-tri-[N-(octadec-9-enyl)-carbamoyl]-resveratrol], in data set [2], the Solubility in water entry is recorded as “below detection limit”.

In the case of `COCCOCCOCCNC(=O)Oc1ccc(C=Cc2cc(OC(=O)NCCOCCOCCOC)cc(OC(=O)NCCOCCOCCOC)c2)cc1` [Resv(TGME-C)3, 3,4',5-tri-[N-methoxytri-(ethyleneglycol)-carbamoyl] resveratrol], in data set [3], the “reaction with DPPH” value was “does not react at all with DPPH”.

`Oc1ccc(C=Cc2cc(O)cc(O)c2)cc1` [resveratrol]: the “reaction with DPPH” value in data set [3] is “stoichiometric oxidation”.

For the molecule `O=C(NC(Cc1ccccc1)C(=O)O)Oc1ccc(C=Cc2cc(OC(=O)NC(Cc3ccccc3)C(=O)O)cc(OC(=O)NC(Cc3ccccc3)C(=O)O)c2)cc1` (centres unmarked) [Resv(HOPhe-C)3, 3,4',5-tri-[N-(phenylalanyl)-carbamoyl]-resveratrol], the Solubility in water result in data set [2] is “below detection limit”.
